Columns and labels:
[1] = biological target: T1, human TLR9 (Homo sapiens, UniProt Q9NR96); experiment: TLR9 inhibition reporter assay (HEK-Blue cells, SEAP reporter, ODN2006 stimulation); assay type: cell-based; conditions: HEK-Blue cells overexpressing human TLR9, ODN2006 5 nM
T1 construct: host or cells: HEK-Blue cells
T1 sequence (Q9NR96 26-1032): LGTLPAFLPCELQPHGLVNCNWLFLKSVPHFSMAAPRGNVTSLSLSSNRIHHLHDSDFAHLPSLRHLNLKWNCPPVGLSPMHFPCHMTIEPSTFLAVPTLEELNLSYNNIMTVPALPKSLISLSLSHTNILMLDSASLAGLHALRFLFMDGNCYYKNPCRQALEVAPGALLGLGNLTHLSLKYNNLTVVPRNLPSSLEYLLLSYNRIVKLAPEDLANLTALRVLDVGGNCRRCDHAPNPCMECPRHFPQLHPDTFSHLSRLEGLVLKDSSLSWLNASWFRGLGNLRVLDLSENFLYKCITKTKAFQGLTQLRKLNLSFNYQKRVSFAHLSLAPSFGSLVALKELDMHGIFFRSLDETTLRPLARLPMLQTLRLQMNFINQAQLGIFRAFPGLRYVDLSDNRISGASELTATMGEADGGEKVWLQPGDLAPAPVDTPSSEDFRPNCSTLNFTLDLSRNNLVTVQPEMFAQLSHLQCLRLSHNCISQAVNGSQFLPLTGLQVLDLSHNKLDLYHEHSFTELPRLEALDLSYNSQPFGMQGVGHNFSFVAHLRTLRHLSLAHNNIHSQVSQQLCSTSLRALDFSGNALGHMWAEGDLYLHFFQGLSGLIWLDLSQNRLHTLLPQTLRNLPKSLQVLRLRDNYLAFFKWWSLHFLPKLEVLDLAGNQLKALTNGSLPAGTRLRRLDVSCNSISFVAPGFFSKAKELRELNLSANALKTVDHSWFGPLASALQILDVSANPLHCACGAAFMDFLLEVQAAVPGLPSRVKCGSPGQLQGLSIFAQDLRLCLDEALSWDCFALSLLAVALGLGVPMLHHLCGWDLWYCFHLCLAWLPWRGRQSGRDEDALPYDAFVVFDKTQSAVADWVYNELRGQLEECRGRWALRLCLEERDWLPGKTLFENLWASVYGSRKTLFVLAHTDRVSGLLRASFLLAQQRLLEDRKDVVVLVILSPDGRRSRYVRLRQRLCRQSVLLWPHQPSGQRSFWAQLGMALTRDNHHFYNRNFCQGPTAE
Method in brief: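 Agonists used: gardiquimod 7.5 μM (TLR7), R848 15.9 μM (TLR8), ODN2006 5 nM (TLR9), added after 30 min room-temperature compound pre-treatment (0.05 nM–50 μM) of receptor-overexpressing HEK-Blue cells. SEAP reporter (NF-κB/AP-1 driven) read after 22 h at 37 °C; inhibition scaled between agonist+DMSO and reference-inhibitor wells.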

[2] = biological target: T2, human TLR7 (Homo sapiens, UniProt Q9NYK1); experiment: TLR7 inhibition reporter assay (HEK-Blue cells, SEAP reporter, gardiquimod stimulation); assay type: cell-based; conditions: HEK-Blue cells overexpressing human TLR7, gardiquimod 7.5 μM
T2 construct: host or cells: HEK-Blue cells
T2 sequence (Q9NYK1 27-1049): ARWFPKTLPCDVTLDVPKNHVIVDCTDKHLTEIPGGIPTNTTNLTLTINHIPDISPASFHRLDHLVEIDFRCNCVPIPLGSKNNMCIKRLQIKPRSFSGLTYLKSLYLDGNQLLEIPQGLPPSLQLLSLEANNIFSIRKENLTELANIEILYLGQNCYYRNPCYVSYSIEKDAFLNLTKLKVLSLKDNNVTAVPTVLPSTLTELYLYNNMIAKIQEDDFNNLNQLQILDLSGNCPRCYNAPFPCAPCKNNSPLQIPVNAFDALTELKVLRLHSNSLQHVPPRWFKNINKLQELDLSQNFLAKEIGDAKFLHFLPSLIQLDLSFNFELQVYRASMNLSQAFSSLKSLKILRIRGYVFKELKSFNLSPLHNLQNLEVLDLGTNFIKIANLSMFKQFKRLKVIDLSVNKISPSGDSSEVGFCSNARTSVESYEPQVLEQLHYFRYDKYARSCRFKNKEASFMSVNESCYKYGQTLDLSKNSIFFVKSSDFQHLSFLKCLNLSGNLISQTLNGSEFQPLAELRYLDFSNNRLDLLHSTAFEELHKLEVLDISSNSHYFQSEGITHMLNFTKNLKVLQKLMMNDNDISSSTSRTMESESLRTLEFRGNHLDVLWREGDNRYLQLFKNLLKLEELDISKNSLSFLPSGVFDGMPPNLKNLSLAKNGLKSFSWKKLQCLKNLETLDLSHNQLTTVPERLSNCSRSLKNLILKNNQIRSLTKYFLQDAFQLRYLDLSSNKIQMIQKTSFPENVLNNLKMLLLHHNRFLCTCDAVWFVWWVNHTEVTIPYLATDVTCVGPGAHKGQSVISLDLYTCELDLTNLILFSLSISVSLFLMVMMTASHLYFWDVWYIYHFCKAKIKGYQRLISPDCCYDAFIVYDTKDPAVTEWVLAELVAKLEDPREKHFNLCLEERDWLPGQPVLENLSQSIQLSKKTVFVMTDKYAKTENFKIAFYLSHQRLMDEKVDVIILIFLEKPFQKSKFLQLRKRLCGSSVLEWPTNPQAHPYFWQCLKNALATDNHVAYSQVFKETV
Method in brief: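 HEK-Blue reporter cells (15,000/well TLR7, 20,000 TLR8) exposed to compound over 0.05 nM–50 μM, agonist-stimulated (R848 for TLR8, gardiquimod for TLR7), 22 h at 37 °C, 5% CO2. SEAP read with HEK-Blue Detection; % inhibition relative to agonist-plus-DMSO and known-inhibitor controls.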

Row | Structure (SMILES) | IC50 [1] [nM] | IC50 [2] [nM]
1 | COc1ccc(-c2[nH]c3ccc(C4CCN(C5CCN(CCC(F)(F)F)CC5)CC4)cc3c2C)cc1OC [Example 50, 2-(3,4-dimethoxyphenyl)-3-methyl-5-(1′-(3,3,3-trifluoropropyl)-[1,4′-bipiperidin]-4-yl)-1H-indole] | 442 | 1090
2 | CCCCCN1CCC(N2CCC(c3ccc4[nH]c(-c5ccc(OC)c(OC)c5)c(C)c4c3)CC2)CC1 [Example 55, 2-(3,4-dimethoxyphenyl)-3-methyl-5-(1′-pentyl-[1,4′-bipiperidin]-4-yl)-1H-indole] | 72 | 86
3 | COc1ccc(-c2[nH]c3ccc(C4CCN(C5CCN(CC6CCCCC6)CC5)CC4)cc3c2C)cc1OC [Example 58, 5-(1′-(cyclohexylmethyl)-[1,4′-bipiperidin]-4-yl)-2-(3,4-dimethoxyphenyl)-3-methyl-1H-indole] | 86 | 266
4 | COc1ccc(-c2[nH]c3ccc(C4CCN(C5CCN(Cc6cncn6C)CC5)CC4)cc3c2C)cc1OC [Example 59, 2-(3,4-dimethoxyphenyl)-3-methyl-5-(1′-((1-methyl-1H-imidazol-5-yl)methyl)-[1,4′-bipiperidin]-4-yl)-1H-indole] | 180 | 477
5 | COc1ccc(-c2[nH]c3ccc(C4CCN(C5CCN(C6CCCC6)CC5)CC4)cc3c2C)cc1OC [Example 62, 5-(1′-cyclopentyl-[1,4′-bipiperidin]-4-yl)-2-(3,4-dimethoxyphenyl)-3-methyl-1H-indole] | 196 | 225
6 | COc1ccc(-c2[nH]c3ccc(C4CCN(C5CCN(Cc6cccs6)CC5)CC4)cc3c2C)cc1OC [Example 64, 2-(3,4-dimethoxyphenyl)-3-methyl-5-(1′-(thiophen-2-ylmethyl)-[1,4′-bipiperidin]-4-yl)-1H-indole] | 112 | 163
7 | COc1ccc(-c2[nH]c3ccc(C4CCN(C5CCN(CC6CCCC6)CC5)CC4)cc3c2C)cc1OC [Example 65, 5-(1′-(cyclopentylmethyl)-[1,4′-bipiperidin]-4-yl)-2-(3,4-dimethoxyphenyl)-3-methyl-1H-indole] | 112 | 24000
8 | COc1ccc(-c2[nH]c3ccc(C4CCN(C5CCN(C6CCCCC6)CC5)CC4)cc3c2C)cc1OC [Example 68, 5-(1′-cyclohexyl-[1,4′-bipiperidin]-4-yl)-2-(3,4-dimethoxyphenyl)-3-methyl-1H-indole] | 88 | 288
9 | COc1ccc(-c2[nH]c3ccc(C4CCN(C5CCN(CC(C)(C)CO)CC5)CC4)cc3c2C)cc1OC [Example 69, 3-(4-(2-(3,4-dimethoxyphenyl)-3-methyl-1H-indol-5-yl)-[1,4′-bipiperidin]-1′-yl)-2,2-dimethylpropan-1-ol] | 174 | 238
10 | COc1ccc(-c2[nH]c3ccc(C4CCN(C5CCN(Cc6nccs6)CC5)CC4)cc3c2C)cc1OC [Example 72, 2-((4-(2-(3,4-dimethoxyphenyl)-3-methyl-1H-indol-5-yl)-[1,4′-bipiperidin]-1′-yl)methyl)thiazole] | 356 | 563
11 | COc1ccc(-c2[nH]c3ccc(C4CCN(C5CCN(Cc6ccco6)CC5)CC4)cc3c2C)cc1OC [Example 76, 2-(3,4-dimethoxyphenyl)-5-(1′-(furan-2-ylmethyl)-[1,4′-bipiperidin]-4-yl)-3-methyl-1H-indole] | 172 | 147
12 | COc1ccc(-c2[nH]c3ccc(C4CCN(C5CCN(C6CCC(C)CC6)CC5)CC4)cc3c2C)cc1OC (centres unmarked) [Example 80, 2-(3,4-dimethoxyphenyl)-3-methyl-5-(1′-(4-methylcyclohexyl)-[1,4′-bipiperidin]-4-yl)-1H-indole] | 80 | 433

The remaining molecules from weak to strong by IC50 [1], led by results:

Row | IC50 [1] [nM] | IC50 [2] [nM] | Structure (SMILES)
13 | 2760 | 1160 | COc1ccc(-c2[nH]c3ccc(C4CCN(C(C)CO)CC4)cc3c2C)cc1OC (centres unmarked) [Example 43, 2-(4-(2-(3,4-dimethoxyphenyl)-3-methyl-1H-indol-5-yl)piperidin-1-yl)propan-1-ol]
14 | 550 | 1360 | COc1ccc(-c2[nH]c3ccc(C4CCN(CC5CCCCN5C)CC4)cc3c2C)cc1OC (centres unmarked) [Example 49, 2-(3,4-dimethoxyphenyl)-3-methyl-5-(1-((1-methylpiperidin-2-yl)methyl)piperidin-4-yl)-1H-indole]
15 | 435 | 560 | COc1ccc(-c2[nH]c3ccc(C4CCN(C5CC(C)(C)NC(C)(C)C5)CC4)cc3c2C)cc1OC [Example 48, 2-(3,4-dimethoxyphenyl)-3-methyl-5-(2′,2′,6′,6′-tetramethyl-[1,4′-bipiperidin]-4-yl)-1H-indole]
16 | 301 | 468 | CCN1CCC(N2CCC(c3ccc4[nH]c(-c5ccc(OC)c(OC)c5)c(C)c4c3)CC2)CC1 [Example 44, 2-(3,4-dimethoxyphenyl)-5-(1′-ethyl-[1,4′-bipiperidin]-4-yl)-3-methyl-1H-indole]
17 | 268 | 230 | COc1ccc(-c2[nH]c3ccc(C4CCN(C5CCN(CC(O)CO)CC5)CC4)cc3c2C)cc1OC (centres unmarked) [Example 52, 3-(4-(2-(3,4-dimethoxyphenyl)-3-methyl-1H-indol-5-yl)-[1,4′-bipiperidin]-1′-yl)propane-1,2-diol]
18 | 192 | 490 | COc1ccc(-c2[nH]c3ccc(C4CCN(C5CCN(C6CCC(O)CC6)CC5)CC4)cc3c2C)cc1OC (centres unmarked) [Example 84, 4-(4-(2-(3,4-dimethoxyphenyl)-3-methyl-1H-indol-5-yl)-[1,4′-bipiperidin]-1′-yl)cyclohexan-1-ol]
19 | 169 | 734 | COc1ccc(-c2[nH]c3ccc(C4CCN(C5CCN(CC(C)(C)C)CC5)CC4)cc3c2C)cc1OC [Example 75, 2-(3,4-dimethoxyphenyl)-3-methyl-5-(1′-neopentyl-[1,4′-bipiperidin]-4-yl)-1H-indole]
20 | 130 | 223 | COc1ccc(-c2[nH]c3ccc(C4CCN(C5CCN(Cc6cccn6C)CC5)CC4)cc3c2C)cc1OC [Example 78, 2-(3,4-dimethoxyphenyl)-3-methyl-5-(1′-((1-methyl-1H-pyrrol-2-yl)methyl)-[1,4′-bipiperidin]-4-yl)-1H-indole]
21 | 117 | 339 | COc1ccc(-c2[nH]c3ccc(C4CCN(C5CCN(CC6CC6)CC5)CC4)cc3c2C)cc1OC [Example 3, 5-(1′-(cyclopropylmethyl)-[1,4′-bipiperidin]-4-yl)-2-(3,4-dimethoxyphenyl)-3-methyl-1H-indole]
22 | 62 | 1080 | COc1ccc(-c2[nH]c3ccc(C4CCN(C5CCN(CC6CCOC6)CC5)CC4)cc3c2C)cc1OC (centres unmarked) [Example 74]
